# Reference: patent US12268674B2, “Mi-2β inhibitor as an immunotherapy agent” (BioVentures, LLC, priority 2021, dated 2025)
# Key:
# [1] = Tolerability in C57BL/6 mice (body weight, H&E staining of tissues); format: in vivo; conditions: 30 mg/kg/day for 2 weeks
# Text: FIG. 11 illustrates In vitro assay for Mi-2β inhibitors. A, The inhibitory activity of Z36 for Mi-2β chromatin modulatory activity, measured as fold changes of Mi-2β activity treated with control vehicle. B, The inhibitory activity of Z36-MP5 with IC50 values against Mi-2β at different ATP concentrations. The curves from top to bottom: ATP 300 (μM), ATP 100 (μM), ATP 30 (μM), and ATP 10 (μM). C, The expression of Irf1, Cxc19 and Cxcl10 and Irf1 mRNA in B16F10 cells treated with Z36-MP5 as indicated concentration for 24 hours was determined with RT-qPCR assay. The four bars from left to right: vehicle control, Z36-MP5 5 μM, Z36-MP5 25 μM, and Z36-MP5 100 μM. D, Z36-MP5-treated (25 μM) GFP-labelled B16F10 cells were pretreated with 10 ng/ml of IFN-γ for 24 hours, before co-culture with activated Pmel-1 T cells at a ratio of 1:1 for three days. The fold changes of survival GFP-positive tumor cells were assayed with flow cytometry. Data presents as means±SD E, The body weight changes of C57BL/6J mice treated with Z36-MP5 (30 mg/kg/day) for 2 weeks. Data are mean±SEM (n=5). […]
# Z36-MP5 was chosen for further validation and experimental therapeutics in vivo. […] To investigate its cellular inhibitory activity, B16-F10 cells were treated with Z36-MP5 at concentrations ranging from 5 to 100 μM, and the activation of Mi-2β target genes measured by RT-qPCR. […]
# [2] = target: T1, ACTR3 (Homo sapiens, UniProt P61158); test: ATPase profile (ATP acyl phosphate probe); format: binding
# T1 construct: to get the native cell lysate; host or cells: A375 cell lysate
# [3] = target: T2, AFG3L2 (Homo sapiens, UniProt Q9Y4W6); test: ATPase profile (ATP acyl phosphate probe); format: binding; conditions: AFG3L2, SEQ ID NO: 29, ATP BS
# T2 construct: to get the native cell lysate; host or cells: A375 cell lysate
# [4] = target: T3, CCT7 (Homo sapiens, UniProt Q99832); test: ATPase profile (ATP acyl phosphate probe); format: binding; conditions: CCT7, SEQ ID NO: 55, ATP BS
# T3 construct: host or cells: A375 cell lysate
# [5] = target: T4, (Homo sapiens, UniProt Q9HCK8); test: ATPase profile (ATP acyl phosphate probe); format: binding; conditions: CIID8, SEQ ID NO: 57, ATP BS
# T4 construct: to get the native cell lysate; host or cells: A375 cell lysate
# [6] = target: T5, GART (Homo sapiens, UniProt P22102); test: ATPase profile (ATP acyl phosphate probe); format: binding
# T5 construct: endogenous in cells; host or cells: A375 cell lysate
# T5 sequence (P22102 1-1010): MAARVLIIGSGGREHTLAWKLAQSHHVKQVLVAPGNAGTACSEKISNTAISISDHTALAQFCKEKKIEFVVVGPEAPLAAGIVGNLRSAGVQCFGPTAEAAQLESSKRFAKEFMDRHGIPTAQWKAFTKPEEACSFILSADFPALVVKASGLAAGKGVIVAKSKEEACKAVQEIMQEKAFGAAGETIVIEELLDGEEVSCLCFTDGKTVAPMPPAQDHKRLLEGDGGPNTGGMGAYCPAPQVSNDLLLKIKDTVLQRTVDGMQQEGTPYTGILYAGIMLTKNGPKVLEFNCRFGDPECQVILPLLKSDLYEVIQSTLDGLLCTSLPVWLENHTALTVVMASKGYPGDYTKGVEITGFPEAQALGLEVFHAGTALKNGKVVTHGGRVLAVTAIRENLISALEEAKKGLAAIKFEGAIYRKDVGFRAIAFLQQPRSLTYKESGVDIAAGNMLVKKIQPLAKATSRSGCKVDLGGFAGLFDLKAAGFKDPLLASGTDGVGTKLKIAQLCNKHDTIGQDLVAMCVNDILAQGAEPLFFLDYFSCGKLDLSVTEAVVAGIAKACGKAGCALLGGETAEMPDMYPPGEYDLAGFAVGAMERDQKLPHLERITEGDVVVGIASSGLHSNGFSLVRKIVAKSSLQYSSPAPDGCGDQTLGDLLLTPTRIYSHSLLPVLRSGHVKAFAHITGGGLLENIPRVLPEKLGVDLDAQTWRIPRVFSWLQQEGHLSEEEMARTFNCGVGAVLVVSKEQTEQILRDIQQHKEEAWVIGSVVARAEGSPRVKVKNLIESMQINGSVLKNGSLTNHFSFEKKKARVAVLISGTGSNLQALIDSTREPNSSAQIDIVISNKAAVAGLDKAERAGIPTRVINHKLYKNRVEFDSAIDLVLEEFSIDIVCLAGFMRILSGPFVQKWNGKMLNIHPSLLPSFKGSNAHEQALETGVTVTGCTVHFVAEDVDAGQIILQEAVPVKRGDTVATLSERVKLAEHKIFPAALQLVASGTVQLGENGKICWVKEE
# [7] = target: T6, MCCC1 (Homo sapiens, UniProt Q96RQ3); test: ATPase profile (ATP acyl phosphate probe); format: binding
# T6 construct: to get the native cell lysate; endogenous in cells; host or cells: A375
# [8] = target: T7, MVK (Homo sapiens, UniProt Q03426); test: ATPase profile (ATP acyl phosphate probe); format: binding; conditions: SEQ ID NO: 127, ATP BS
# T7 construct: to get the native cell lysate; endogenous in cells; host or cells: A375
# [9] = target: PSMC2 (Homo sapiens, UniProt P35998); test: ATPase profile (ATP acyl phosphate probe); format: binding; conditions: PSMC2, SEQ ID NO: 174, ATP BS
# [10] = target: T8, TOR1B (Homo sapiens, UniProt O14657); test: ATPase profile (ATP acyl phosphate probe); format: binding; conditions: SEQ ID NO: 204, ATP BS
# T8 construct: to get the native cell lysate; endogenous in cells; host or cells: A375 cell lysate
# T8 sequence (O14657 25-336): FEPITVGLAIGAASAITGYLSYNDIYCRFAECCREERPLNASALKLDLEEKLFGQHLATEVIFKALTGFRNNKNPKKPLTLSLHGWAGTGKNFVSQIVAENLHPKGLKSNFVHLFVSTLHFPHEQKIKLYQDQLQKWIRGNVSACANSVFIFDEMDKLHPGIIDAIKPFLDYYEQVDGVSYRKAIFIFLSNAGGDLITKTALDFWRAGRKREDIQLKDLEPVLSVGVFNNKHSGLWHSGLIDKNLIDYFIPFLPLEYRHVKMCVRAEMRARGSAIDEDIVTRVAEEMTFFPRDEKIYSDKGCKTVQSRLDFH
# T6 sequence (Q96RQ3 48-725 limits assumed): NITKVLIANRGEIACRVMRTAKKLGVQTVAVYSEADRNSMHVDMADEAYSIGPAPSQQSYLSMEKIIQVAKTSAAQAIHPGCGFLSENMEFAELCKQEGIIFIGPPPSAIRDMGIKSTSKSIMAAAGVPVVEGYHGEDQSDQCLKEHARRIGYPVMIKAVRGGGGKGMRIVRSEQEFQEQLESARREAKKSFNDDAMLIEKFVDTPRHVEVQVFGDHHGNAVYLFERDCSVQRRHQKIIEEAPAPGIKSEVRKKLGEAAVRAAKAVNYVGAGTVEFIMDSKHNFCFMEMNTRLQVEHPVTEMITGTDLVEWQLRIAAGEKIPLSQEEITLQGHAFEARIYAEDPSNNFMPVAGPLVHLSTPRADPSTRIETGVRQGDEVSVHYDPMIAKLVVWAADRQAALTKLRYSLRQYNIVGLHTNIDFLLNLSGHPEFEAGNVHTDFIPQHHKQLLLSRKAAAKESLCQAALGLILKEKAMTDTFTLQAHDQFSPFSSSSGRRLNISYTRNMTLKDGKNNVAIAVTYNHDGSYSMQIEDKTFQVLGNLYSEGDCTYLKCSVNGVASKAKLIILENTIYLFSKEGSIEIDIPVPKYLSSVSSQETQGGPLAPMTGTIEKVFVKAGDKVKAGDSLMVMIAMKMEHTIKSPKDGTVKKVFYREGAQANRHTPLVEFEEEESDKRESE
# T6 sequence (Q9HCC0 23-563 partner): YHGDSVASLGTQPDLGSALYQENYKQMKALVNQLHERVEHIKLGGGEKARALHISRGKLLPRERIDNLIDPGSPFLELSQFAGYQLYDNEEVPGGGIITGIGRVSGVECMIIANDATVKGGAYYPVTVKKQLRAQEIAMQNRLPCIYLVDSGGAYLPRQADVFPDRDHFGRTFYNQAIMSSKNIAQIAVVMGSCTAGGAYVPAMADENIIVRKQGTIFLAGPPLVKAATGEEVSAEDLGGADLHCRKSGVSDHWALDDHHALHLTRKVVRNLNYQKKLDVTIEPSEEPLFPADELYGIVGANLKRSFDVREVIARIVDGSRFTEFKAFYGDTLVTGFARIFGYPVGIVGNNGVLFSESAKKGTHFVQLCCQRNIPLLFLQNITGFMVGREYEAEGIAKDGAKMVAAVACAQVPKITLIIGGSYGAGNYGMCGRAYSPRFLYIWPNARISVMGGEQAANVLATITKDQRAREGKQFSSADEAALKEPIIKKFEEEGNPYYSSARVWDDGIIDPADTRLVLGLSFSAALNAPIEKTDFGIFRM
# PSMC2, sequence (P35998 whole entry): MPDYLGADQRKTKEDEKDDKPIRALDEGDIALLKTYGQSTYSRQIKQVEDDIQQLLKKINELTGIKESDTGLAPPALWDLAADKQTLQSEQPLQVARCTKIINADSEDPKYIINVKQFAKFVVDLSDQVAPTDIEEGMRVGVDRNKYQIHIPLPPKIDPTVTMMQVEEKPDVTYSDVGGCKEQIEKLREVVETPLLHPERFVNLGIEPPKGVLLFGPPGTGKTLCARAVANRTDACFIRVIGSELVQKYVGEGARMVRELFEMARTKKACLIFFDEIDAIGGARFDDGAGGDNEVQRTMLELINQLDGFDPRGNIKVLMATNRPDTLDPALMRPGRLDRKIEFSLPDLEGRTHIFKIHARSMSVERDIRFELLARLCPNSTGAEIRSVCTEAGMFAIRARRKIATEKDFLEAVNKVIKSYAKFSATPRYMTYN
# PSMC2, sequence (P62191 whole entry partner): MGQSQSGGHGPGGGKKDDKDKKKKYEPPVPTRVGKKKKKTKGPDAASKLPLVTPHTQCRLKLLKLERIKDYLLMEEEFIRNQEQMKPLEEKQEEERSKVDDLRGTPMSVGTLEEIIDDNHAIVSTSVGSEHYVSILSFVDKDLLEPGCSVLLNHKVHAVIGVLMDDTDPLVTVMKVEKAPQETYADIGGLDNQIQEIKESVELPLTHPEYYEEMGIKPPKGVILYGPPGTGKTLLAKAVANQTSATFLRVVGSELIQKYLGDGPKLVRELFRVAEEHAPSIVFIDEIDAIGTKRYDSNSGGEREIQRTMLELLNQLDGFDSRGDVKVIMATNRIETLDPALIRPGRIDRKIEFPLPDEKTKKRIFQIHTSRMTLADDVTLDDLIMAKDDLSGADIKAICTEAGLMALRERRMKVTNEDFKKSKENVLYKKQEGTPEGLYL
# PSMC2, sequence (P17980 whole entry partner): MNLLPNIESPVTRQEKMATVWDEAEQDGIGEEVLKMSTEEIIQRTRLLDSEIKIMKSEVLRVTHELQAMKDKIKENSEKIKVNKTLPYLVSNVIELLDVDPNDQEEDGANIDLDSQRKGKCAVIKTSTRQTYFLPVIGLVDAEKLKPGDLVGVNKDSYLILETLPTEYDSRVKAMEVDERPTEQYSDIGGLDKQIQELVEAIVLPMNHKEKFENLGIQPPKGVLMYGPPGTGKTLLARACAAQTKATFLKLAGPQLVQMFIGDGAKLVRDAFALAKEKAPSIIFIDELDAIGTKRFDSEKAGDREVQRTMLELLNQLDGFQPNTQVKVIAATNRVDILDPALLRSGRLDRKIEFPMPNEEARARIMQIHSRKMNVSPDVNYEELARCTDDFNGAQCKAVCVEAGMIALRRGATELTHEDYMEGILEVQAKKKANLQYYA
# PSMC2, sequence (P43686 whole entry partner): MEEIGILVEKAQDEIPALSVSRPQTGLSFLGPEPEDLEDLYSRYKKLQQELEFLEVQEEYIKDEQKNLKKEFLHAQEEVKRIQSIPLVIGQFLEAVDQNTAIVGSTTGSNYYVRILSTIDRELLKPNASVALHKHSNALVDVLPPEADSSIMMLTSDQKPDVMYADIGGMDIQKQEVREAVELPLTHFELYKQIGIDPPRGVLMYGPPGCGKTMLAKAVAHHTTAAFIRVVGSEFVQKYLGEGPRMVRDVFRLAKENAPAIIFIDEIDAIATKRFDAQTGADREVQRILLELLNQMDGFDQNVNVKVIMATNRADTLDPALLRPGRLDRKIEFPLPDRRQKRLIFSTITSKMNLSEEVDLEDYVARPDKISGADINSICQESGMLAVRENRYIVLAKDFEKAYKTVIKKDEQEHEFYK
# PSMC2, sequence (P62195 whole entry partner): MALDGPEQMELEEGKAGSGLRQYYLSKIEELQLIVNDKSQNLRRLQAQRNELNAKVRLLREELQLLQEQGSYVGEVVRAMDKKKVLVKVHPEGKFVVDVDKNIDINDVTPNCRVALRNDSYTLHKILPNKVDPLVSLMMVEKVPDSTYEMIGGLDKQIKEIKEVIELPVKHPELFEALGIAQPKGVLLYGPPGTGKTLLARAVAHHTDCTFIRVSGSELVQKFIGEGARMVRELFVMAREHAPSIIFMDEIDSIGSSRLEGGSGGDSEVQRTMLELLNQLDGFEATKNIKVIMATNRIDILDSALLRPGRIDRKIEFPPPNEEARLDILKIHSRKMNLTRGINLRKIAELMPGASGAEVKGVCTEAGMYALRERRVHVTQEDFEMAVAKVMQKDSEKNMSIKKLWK
# PSMC2, sequence (P62333 whole entry partner): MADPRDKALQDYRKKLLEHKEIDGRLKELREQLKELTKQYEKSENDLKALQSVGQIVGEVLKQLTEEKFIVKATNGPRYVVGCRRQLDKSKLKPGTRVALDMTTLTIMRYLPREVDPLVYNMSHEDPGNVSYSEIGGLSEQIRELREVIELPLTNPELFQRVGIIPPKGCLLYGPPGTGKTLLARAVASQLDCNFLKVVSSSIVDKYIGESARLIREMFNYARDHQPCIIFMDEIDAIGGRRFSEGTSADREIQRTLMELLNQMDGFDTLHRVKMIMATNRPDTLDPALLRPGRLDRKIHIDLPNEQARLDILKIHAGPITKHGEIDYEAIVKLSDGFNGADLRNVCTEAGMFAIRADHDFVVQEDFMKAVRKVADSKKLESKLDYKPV
# T2 sequence (Q9Y4W6 67-797): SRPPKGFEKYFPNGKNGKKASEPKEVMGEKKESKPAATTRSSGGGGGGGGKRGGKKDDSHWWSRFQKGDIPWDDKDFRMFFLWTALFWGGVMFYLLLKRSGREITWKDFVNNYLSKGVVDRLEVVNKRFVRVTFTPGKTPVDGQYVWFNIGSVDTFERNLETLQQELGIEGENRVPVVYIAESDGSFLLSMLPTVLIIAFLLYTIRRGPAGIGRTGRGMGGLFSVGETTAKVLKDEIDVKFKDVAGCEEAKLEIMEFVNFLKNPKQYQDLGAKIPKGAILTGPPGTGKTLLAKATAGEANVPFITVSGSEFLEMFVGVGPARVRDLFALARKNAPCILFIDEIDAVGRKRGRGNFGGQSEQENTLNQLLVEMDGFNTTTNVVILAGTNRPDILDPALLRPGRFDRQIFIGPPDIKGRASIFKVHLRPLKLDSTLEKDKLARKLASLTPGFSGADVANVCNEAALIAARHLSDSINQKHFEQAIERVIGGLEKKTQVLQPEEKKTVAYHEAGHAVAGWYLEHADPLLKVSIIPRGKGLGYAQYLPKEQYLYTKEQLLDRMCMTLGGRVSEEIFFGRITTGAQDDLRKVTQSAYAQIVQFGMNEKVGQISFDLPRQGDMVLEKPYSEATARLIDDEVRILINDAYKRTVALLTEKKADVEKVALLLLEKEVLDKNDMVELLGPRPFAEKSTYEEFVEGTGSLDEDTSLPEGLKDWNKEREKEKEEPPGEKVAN
smiles,measurement,setting,value
"Cn1c(=O)[nH]c2ccc(-c3cccc(C(=O)NC4CCn5ccnc5C4)c3)cc21 (centres unmarked) [Z36-MP5, 3-(3-methyl-2-oxo-2,3-dihydro-1H-benzo[d]imidazol-5-yl)-N-(5,6,7,8-tetrahydroimidazo[1,2-a]pyridin-7-yl)benzamide]","tolerability (mouse weight, organ tissue histological staining)",[1],tolerated without significant toxicity
same,Inhibition (%) by 1 μM Z36-MP5,"[2]; ACTR3, SEQ ID NO: 27, ATP BS",5.36%
same,Inhibition (%) by 1 μM Z36-MP5,"[2]; ACTR3, SEQ ID NO: 28, ATP BS",−0.28%
same,Inhibition (%) by 1 μM Z36-MP5,[3],−4.85%
same,Inhibition (%) by 1 μM Z36-MP5,[4],10.91%
same,Inhibition (%) by 1 μM Z36-MP5,[5],−44.26%
same,Inhibition (%) by 1 μM Z36-MP5,"[6]; SEQ ID NO: 80, ATP BS",−8.85%
same,Inhibition (%) by 1 μM Z36-MP5,"[6]; SEQ ID NO: 81, ATP BS",−7.56%
same,Inhibition (%) by 1 μM Z36-MP5,"[6]; SEQ ID NO: 82, ATP BS",−2.13%
same,Inhibition (%) by 1 μM Z36-MP5,"[7]; MCCC1, SEQ ID NO: 116, ATP BS",−6.46%
same,Inhibition (%) by 1 μM Z36-MP5,"[7]; MCCC1, SEQ ID NO: 117, ATP BS",4.45%
same,Inhibition (%) by 1 μM Z36-MP5,[8],15.38%
same,Inhibition (%) by 1 μM Z36-MP5,[9],−6.44%
same,Inhibition (%) by 1 μM Z36-MP5,[10],2.00%
